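The compound was tested at five concentrations on cells cultured in 96-well plates, with a 48-hour exposure period. TGI is the concentration that stops growth completely.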

Among the test systems are T-47D breast; A498 renal; HCT-116 colon; KM12 colon; OVCAR-8 ovarian; HL-60(TB) leukemia; LOX IMVI melanoma; NCI-H522 lung; A549 NSCLC; NCI-H23 lung; SK-MEL-28 melanoma; IGROV1 ovarian; OVCAR-3 ovarian; MDA-MB-435; HCC-2998 colon; MCF7 breast; SK-OV-3 ovarian; HCT-15 colon; HT29 colon; SF-268 CNS.
Holding throughout (assay): NCI tumour cell line growth inhibition, 48 h

`COc1ccc2cc(CN3CCC(C4CCN(Cc5ccc6cc(OC)ccc6c5)CC4)CC3)ccc2c1`: the TGI in the assay with T-47D breast stood at 4.45 µM; in the assay with A498 renal, 22.2 µM; with HCT-116 colon it was 10.6 µM; with KM12 colon, 6.31 µM; in the assay with OVCAR-8 ovarian, 19.4 µM; with HL-60(TB) leukemia, 4.31 µM. The TGI is 5.66 µM with LOX IMVI melanoma; 6.56 µM with NCI-H522 lung; above 100 µM with A549 NSCLC; 35.9 µM in the assay with NCI-H23 lung; 4.75 µM in the assay on SK-MEL-28 melanoma; 21.6 µM in the assay on IGROV1 ovarian. Besides, the TGI was 9.74 µM with OVCAR-3 ovarian; 3.58 µM in the assay with MDA-MB-435; 0.367 µM in the assay with HCC-2998 colon; above 100 µM in the assay with MCF7 breast; above 72.8 µM in the assay with SK-OV-3 ovarian; 3.04 µM with HCT-15 colon. Besides, the values for the TGI in the assay on HT29 colon and in the assay with SF-268 CNS were 6.64 µM and 10.8 µM, respectively.

As to `O=C1C=C(NCC(c2ccccc2)c2ccccc2)C(=O)c2ncccc21`, the TGI in the assay with T-47D breast is 13.4 µM; in the assay with A498 renal, 9.69 µM; with HCT-116 colon it was above 23.7 µM; with KM12 colon, 16.5 µM; in the assay with OVCAR-8 ovarian, 11.5 µM; in the assay on HL-60(TB) leukemia, 3.32 µM. Further, the TGI amounted to 5.23 µM in the assay on LOX IMVI melanoma; 3.57 µM in the assay with NCI-H522 lung; 1.87 µM in the assay with A549 NSCLC; 5.76 µM with NCI-H23 lung; 10 µM in the assay with SK-MEL-28 melanoma; 8.82 µM with IGROV1 ovarian. The TGI worked out at 3.32 µM in the assay with OVCAR-3 ovarian; 2.84 µM in the assay on MDA-MB-435; 2.12 µM in the assay with HCC-2998 colon; 3.33 µM with MCF7 breast; 47.6 µM with SK-OV-3 ovarian; 1.34 µM in the assay on HCT-15 colon. The TGI in the assay on HT29 colon came to 25.8 µM; in the assay with SF-268 CNS, 13.8 µM.

Consider `CCOC(=O)N/N=C(\CC)NO`, for which the TGI in the assay with T-47D breast, in the assay with A498 renal, with HCT-116 colon, in the assay on KM12 colon, in the assay on OVCAR-8 ovarian and in the assay on HL-60(TB) leukemia was above 100 µM throughout. Further, the TGI in the assay with LOX IMVI melanoma, in the assay on NCI-H522 lung, in the assay with A549 NSCLC, in the assay with NCI-H23 lung, with SK-MEL-28 melanoma and in the assay on IGROV1 ovarian was above 100 µM throughout. Further, the TGI with OVCAR-3 ovarian, in the assay with MDA-MB-435, in the assay with HCC-2998 colon, with MCF7 breast, in the assay on SK-OV-3 ovarian and in the assay with HCT-15 colon was above 100 µM in each case. The TGI with HT29 colon and in the assay with SF-268 CNS was above 100 µM in each case.

`CC(=O)N1C(CCc2ccccc2)CC(C)(C=O)C1Cc1ccc(O[Si](C(C)C)(C(C)C)C(C)C)cc1` (stereo not given): the TGI in the assay with T-47D breast was determined as 12.9 µM; with A498 renal, 14.3 µM; in the assay with HCT-116 colon, 9.03 µM; in the assay with KM12 colon, 11.8 µM; in the assay with OVCAR-8 ovarian, 18.6 µM; with HL-60(TB) leukemia it was 4.42 µM. The TGI in the assay on LOX IMVI melanoma stood at 3.85 µM; in the assay on NCI-H522 lung, 5.95 µM; in the assay on A549 NSCLC, 15.2 µM; in the assay on NCI-H23 lung it was 24.3 µM; with SK-MEL-28 melanoma, 18.7 µM; with IGROV1 ovarian it was 19.1 µM. Further, the TGI in the assay with OVCAR-3 ovarian was found to be 11.8 µM; in the assay on MDA-MB-435, 8.39 µM; in the assay on HCC-2998 colon, 4.62 µM; in the assay with MCF7 breast, 5.26 µM; in the assay on SK-OV-3 ovarian, 29.3 µM; in the assay on HCT-15 colon it was 10.7 µM. Moreover, the figures for the TGI in the assay with HT29 colon and in the assay with SF-268 CNS were 9.99 µM and 15.8 µM, respectively.

Take `COC(=O)c1sc2c(c1C(=O)OC)C(=NC(C)(C)C)SC2=NC(C)(C)C`: the TGI with T-47D breast was 31.4 µM; in the assay on A498 renal it was 32.5 µM; with HCT-116 colon, 30.5 µM; with KM12 colon it was 33.8 µM; in the assay with OVCAR-8 ovarian, 42.3 µM; in the assay with HL-60(TB) leukemia it was 28.6 µM. Moreover, the TGI with LOX IMVI melanoma is 38.6 µM; in the assay on NCI-H522 lung, 37.5 µM; with A549 NSCLC it was 41.8 µM; in the assay with NCI-H23 lung, 34.5 µM; in the assay with SK-MEL-28 melanoma, 32 µM; in the assay with IGROV1 ovarian, 36.2 µM. The TGI amounted to 36.9 µM in the assay on OVCAR-3 ovarian; 34.6 µM with MDA-MB-435; 28.3 µM in the assay on HCC-2998 colon; 33.1 µM in the assay on MCF7 breast; 55.7 µM in the assay with SK-OV-3 ovarian; 34.3 µM in the assay with HCT-15 colon. Moreover, the TGI is 37.6 µM in the assay on HT29 colon and 36 µM with SF-268 CNS.

With `CO[C@@H]1C[C@H]2[C@@H]3CC[C@H]([C@H](C)COC(C)=O)[C@@]3(C)CC[C@@H]2[C@@]2(C)CC[C@H]3C[C@]312`, the TGI in the assay on T-47D breast, in the assay on A498 renal, in the assay with HCT-116 colon, in the assay on KM12 colon, in the assay with OVCAR-8 ovarian and with HL-60(TB) leukemia was above 100 µM throughout. Further, the TGI in the assay with LOX IMVI melanoma, with NCI-H522 lung, with A549 NSCLC, with NCI-H23 lung, with SK-MEL-28 melanoma and in the assay on IGROV1 ovarian was above 100 µM throughout. The TGI in the assay on OVCAR-3 ovarian, in the assay with MDA-MB-435, in the assay with HCC-2998 colon, with MCF7 breast, in the assay on HCT-15 colon and in the assay on HT29 colon was above 100 µM throughout. The molecule also displayed a TGI in the assay on SF-268 CNS above 100 µM.

In the case of `O=c1oc2ccccc2c(O)c1C(c1cccc(C(c2c(O)c3ccccc3oc2=O)c2c(O)c3ccccc3oc2=O)c1)c1c(O)c2ccccc2oc1=O`, the TGI in the assay on T-47D breast is above 100 µM; in the assay on A498 renal, above 100 µM; in the assay with HCT-116 colon it was above 100 µM; in the assay with KM12 colon, above 100 µM; in the assay on OVCAR-8 ovarian it was above 100 µM; in the assay on HL-60(TB) leukemia it was 45.8 µM. Also, the TGI with LOX IMVI melanoma is 60.2 µM; in the assay with NCI-H522 lung, 35.6 µM; in the assay with A549 NSCLC it was above 100 µM; in the assay with NCI-H23 lung, above 100 µM; in the assay on SK-MEL-28 melanoma it was above 100 µM; in the assay with IGROV1 ovarian it was above 100 µM. Further, the TGI in the assay on OVCAR-3 ovarian was above 100 µM; in the assay on MDA-MB-435, above 100 µM; with HCC-2998 colon, 46.2 µM; in the assay on MCF7 breast, 61.3 µM; in the assay on SK-OV-3 ovarian, above 100 µM; in the assay on HCT-15 colon it was above 100 µM. Besides, the TGI with HT29 colon and with SF-268 CNS was above 100 µM each time.

For `N#C/C(=C\c1ccc([N+](=O)[O-])o1)c1n[nH]c(Cc2ccccc2)n1`, the TGI was 4.2 µM in the assay on T-47D breast; 14.6 µM with A498 renal; 0.668 µM with HCT-116 colon; 6.69 µM with KM12 colon; above 25.1 µM in the assay with OVCAR-8 ovarian; 6.83 µM with HL-60(TB) leukemia. Besides, the TGI turned out to be 3.85 µM in the assay with LOX IMVI melanoma; 1.57 µM in the assay with NCI-H522 lung; 15 µM with A549 NSCLC; 2.89 µM in the assay on NCI-H23 lung; 4.09 µM with SK-MEL-28 melanoma; 3.11 µM in the assay on IGROV1 ovarian. For the same molecule, the TGI in the assay on OVCAR-3 ovarian stood at 3.01 µM; in the assay with MDA-MB-435, 6.92 µM; with HCC-2998 colon, 3.12 µM; with MCF7 breast, 7.05 µM; with SK-OV-3 ovarian, 16.5 µM; in the assay with HT29 colon it was 2.83 µM. This molecule gave a TGI in the assay on SF-268 CNS of 2.91 µM.

Take `C[C@@H](NC(=O)Cn1c(Cl)nc2ccccc21)c1ccccc1`: the TGI in the assay with T-47D breast, in the assay with A498 renal, with HCT-116 colon, with KM12 colon, with OVCAR-8 ovarian and in the assay on HL-60(TB) leukemia was above 100 µM each time. Further, the TGI in the assay on LOX IMVI melanoma, in the assay on NCI-H522 lung, in the assay with A549 NSCLC, in the assay with NCI-H23 lung, in the assay with SK-MEL-28 melanoma and with OVCAR-3 ovarian was above 100 µM throughout. Also, the TGI in the assay with MDA-MB-435, in the assay with HCC-2998 colon, with MCF7 breast, in the assay on SK-OV-3 ovarian, with HCT-15 colon and in the assay on HT29 colon was above 100 µM throughout. The TGI in the assay on SF-268 CNS is above 100 µM.

For the molecule `COc1ccc(/C=C2\Sc3nnc(-c4ccccc4)n3N=C2c2cc(F)c(Cl)cc2Cl)cc1OC`, the TGI in the assay with T-47D breast, in the assay on A498 renal, in the assay with HCT-116 colon, in the assay on KM12 colon, with OVCAR-8 ovarian and with HL-60(TB) leukemia was above 100 µM each time. Besides, the TGI with LOX IMVI melanoma is above 100 µM; with NCI-H522 lung, 38.3 µM; in the assay with NCI-H23 lung, above 100 µM; in the assay on SK-MEL-28 melanoma it was above 100 µM; with IGROV1 ovarian, above 100 µM; with OVCAR-3 ovarian, above 100 µM. Besides, the TGI was above 100 µM with MDA-MB-435; 47.2 µM in the assay with HCC-2998 colon; above 100 µM in the assay on MCF7 breast; above 100 µM in the assay on SK-OV-3 ovarian; above 100 µM in the assay with HCT-15 colon; above 100 µM in the assay with HT29 colon. In addition, the TGI with SF-268 CNS was above 100 µM.

In the case of `COc1ccc(C[C@@H](C(=O)O[C@H](C)[C@H](NC(=O)[C@@H](CC(C)C)N(C)C(=O)C2CCCN2C(=O)[C@H](C)O)C(=O)N2CCCCNC(=O)[C@@H](C)C(=O)[C@H](C(C)C)OC(=O)C[C@H](O)[C@H]2CC(C)C)N(C)C(C)=O)cc1` (stereo not given in full), the TGI was above 50 µM in the assay on T-47D breast; 43.6 µM in the assay on A498 renal; above 50 µM in the assay with HCT-116 colon; 31.6 µM with KM12 colon; above 50 µM in the assay on OVCAR-8 ovarian; 25.2 µM in the assay with HL-60(TB) leukemia. Also, the TGI in the assay with NCI-H522 lung was above 50 µM; in the assay with A549 NSCLC, above 50 µM; in the assay with NCI-H23 lung, 42.5 µM; with SK-MEL-28 melanoma, 22.6 µM; with IGROV1 ovarian, above 50 µM; in the assay on OVCAR-3 ovarian, above 50 µM. Moreover, the TGI with MDA-MB-435 was above 50 µM; in the assay on HCC-2998 colon it was 23 µM; in the assay on MCF7 breast, above 50 µM; in the assay with SK-OV-3 ovarian, above 50 µM; in the assay on HCT-15 colon, above 50 µM; with HT29 colon it was 25.4 µM. The molecule further displayed a TGI in the assay on SF-268 CNS above 50 µM.

The values are drawn from PubChem BioAssay (NCI).
